Where a name gives a salt, the structure may show the parent alone.

Data set [1] relates to rabbit ileum. As to the kind of experiment: Spontaneous motility in vitro of rabbit ileum. Set-up: species or system rabbit (New Zealand male). To be noted: Oryctolagus cuniculus; 50% reduction of amplitude of the basal contraction; Tyrode, 37° C.; read-out: CI50 (the source's name). The procedure: The spontaneous motility of the preparations was measured by a isotonic transducer connected with a microdynamometer. Each preparation was previously left dipped for about one hour in the solution up to reach the osmotic equilibrium.
After this time the single compounds were poured in the bath in gradual doses up to notice the quite total disappearance of spontaneous activity in the organ. For sake of comparison parallel tests with papaverine were carried out.

The test system of data set [2] is guinea pig ileum. As to the kind of experiment: BaCl2-induced contraction on guinea pig ileum in vitro. Set-up: species or system guinea pig (Whitish female). Conditions: for IC50: Cavia porcellus, BaCl2 50 mcg/ml, Tyrode, 37° C., 3 minutes before spasmogen, read-out: CI50 (the source's name); for BaCl2-induced contraction on guinea pig ileum: result in words. The procedure:
(§1) On the guinea pig ileum, which has a minimum intrinsic motility but a remarkable sensibility to agents causing a contracture or a relaxation of the intestinal smooth muscular system, it was possible to further evaluate the spasmolytic activity of the examined substances. As spasmogenic agents acetylcholine and BaCl2 were used which were respectively added to the bath at final concentrations of 0.1 mcg/ml and 50 mcg/ml.
(§2) Ten preparations of guinea pig ileum for each compound were prepared, yet maintaining the same dose range which was used on rabbit ileum.
(§3) The contractions were measured by means of an isotonic transducer connected with a microdynamometer. Each preparation was left dipped for about 30 minutes up to reach the equilibrium.
(§4) After this time, the single doses of each substance to be examined were introduced three minutes before the spasmogenic substance which was contacted with the preparation for 1 minute. Before the subsequent dose of drug was introduced, the tested organ was allowed to recover the basal conditions and this was ascertained by using the only spasmogenic substance. The process was repeated for all the other concentrations. Afterwards the comparison with the reference spasmolytic substance having a known activity, namely papaverine, was carried out yet working in the same conditions and according to the same procedure.

The subject of data set [3] is guinea pig ileum. As to the kind of experiment: Acetylcholine-induced contraction on guinea pig ileum in vitro. Set-up: species or system guinea pig (Whitish female). Conditions: for IC50: Cavia porcellus, acetylcholine 0.1 mcg/ml, Tyrode, 37° C., 3 minutes before spasmogen, read-out: CI50 (the source's name); for acetylcholine-induced contraction on guinea pig ileum: result in words. The procedure:
as §1, §2, §3, §4

Data set [4] relates to rabbit ileum. As to the kind of experiment: BaCl2-induced contraction on isolated rabbit ileum. Conditions: Oryctolagus cuniculus; 50% reduction of the BaCl2-induced contraction; BaCl2 50 mcg/ml; read-out: CI50 (the source's name). From the text:
The activity of same compounds in antagonizing the spasm as caused by BaCl2 introduced in the bath at a concentration of 50 mcg/ml one minute before each test was studied. Also for this preparation a comparison with papaverine was at last carried out.

The subject of the next data set is small intestine. As to the kind of experiment: Effect on the intestinal progress of opaque meal in rat. It is filed as in vivo, rat (Male Wistar). Conditions: 40 minutes after opaque meal, mean of ten ± standard error, controls 81.76 ± 2.33. The procedure: Male Wistar rats weighing 150-180 g were employed subdivided in groups of ten subjects, which were maintained fasting for 18 hours before the test.
Two administration ways were considered: oral and intraperitoneal.
In the first set of tests to every group of animals each compound was orally administered in the form of an aqueous solution or suspension in gum-arabic (10% in water) 40 minutes before an opaque meal consisting of a suspension of 5% vegetable charcoal in gum-arabic (20% in water).
The animals were killed by cranial injury 40 minutes after the oral administration of the opaque meal and the small intestine was drawn. To the control group an equal volume of saline was administered in the same administration way. The second set of tests was carried out by administering intraperitoneally the compounds 30 minutes before the opaque meal. The animals were killed 40 minutes after the swallowing of the alimentary bolus and the small intestine was drawn; to the control group an equal volume of saline was injected. The total length of small intestine and the progress of opaque meal were measured in each killed animal.

Data set [5] in a line: Acute toxicity (DL50) in mouse. It is filed as in vivo. Conditions: mouse, in vivo, average values with fiducial limits, 7 days observation. The procedure:
The determination of the lethal dose to 50% of the animals which were treated with the examined substances was obtained by using male Swiss mice averaging 22 g and by considering two administration ways: oral and intraperitoneal.
Groups of six animals of each dose were prepared which were kept under observation for 7 days and fasting since the evening before the experience.
During the observation period possible and clear changes in activity and behaviour were controlled by using the Irwin test: a behavioural outline of the treated animals was obtained with respect to other subjects which received reference drugs.
The calculation of acute toxicity was carried out by using the Litchfield and Wilcoxon procedure (J. Pharmac. Exp. Ther. 96, 99, 1949).
The acute toxicity values in mg/kg are given in table 9 in the form of average values with the relevant fiducial limits in comparison with papaverine.

Data set [6] deals with effects caused by Tremorin. The experiment in a line: Central and peripheral anticholinergic activity in mouse after administration of Tremorin. On all read-outs here: key: +: Presence of the effect (ptyalism, miosis, tremors); -: Lack of the effect (ptyalism, miosis, tremors). Format: in vivo, mouse (Swiss male). Conditions: Tremorin 25 mg/kg i.p.; for Tremors: central activity; for Miosis / Ptyalism: peripheral activity. The procedure: (§5) In order to evaluate the possible undesirable collateral systemic effects, tests of central and peripheral anticholinergic activity were carried out by using two animal species, mouse and rat.
In the first series of tests Swiss male mice averaging 25 g were used which were subdivided in three groups of 8 animals. […] The third, control group was given an equal volume of saline.
In watching the effects caused by Tremorin during the development of its action, beside the time for the appearance of tremors as an index of the central activity, further parameters such as ptyalism and miosis were contemplated as indexes of peripheral activity.

Data set [7] deals with acetylcholine-induced chromodacryorrhea. As to the kind of experiment: Anticholinergic activity on chromodacryorrhea from acetylcholine. Format: in vivo, rat (male Wistar). Conditions: for Chromodacryorrhea: acetylcholine 160 mcg s.c. The procedure: as §5
Another series of experiments was carried out on male Wistar rats averaging 150 g in order to point out the anticholinergic activity at the glandular level.
A first control group consisting of six animals was subcutaneously injected with 160 mcg of acetylcholine.

Data set [8] relates to carbachol-stimulated intestinal motility. The experiment in a line: Effect on intestinal progress in rats after excitation with carbachol. It is filed as in vivo, rat. Conditions: 40 mg/kg i.p.; carbachol 30 mcg/kg i.p.; mean of ten ± standard errors; non-stimulated controls 55.7 ± 2.23, stimulated controls 77.95 ± 1.72. The procedure: Subsequently a further series of tests were carried out in order to evaluate the capability of some examined compounds in hindering the stimulating action on intestinal motility of a dose of carbachol at the concentration of 30 mcg/kg when intraperitoneally administered. Carbachol or carbamylcholine chloride is a known substance endowed with parasympathomimetic action.
The control group was given an equal volume of saline.
The survey of the data as given in tables 6 was carried out as previously described by considering the percent intestinal progress of opaque meal with respect to the total length of small intestine.

Another data set is described as follows: Solubility. Format: physicochemical. Conditions: saline; read-out: maximum dose consistent with the total solubility in saline.

For the compound `CC[n+]1ccccc1NCCC(c1ccccc1)c1ccccc1` [2-(3',3'-diphenylpropyl-1'-amino)-1-ethylpyridinium iodide], the values for the IC50 in the data set with rabbit ileum [1], in the data set with guinea pig ileum [2] and in the data set on guinea pig ileum [3] were 18 µM, 3.4 µM and 6.2 µM, respectively.
With `C[n+]1ccccc1NCCC(c1ccccc1)c1ccccc1` [2-(3',3'-diphenylpropyl-1'-amino)-1-methylpyridinium iodide], the IC50 in the data set with rabbit ileum [1] was determined as 26 µM; in the data set on rabbit ileum [4] it was 10 µM; in the data set with guinea pig ileum [2], 4.3 µM; with guinea pig ileum [3] it was 4.6 µM. Besides, the “BaCl2-induced contraction on guinea pig ileum” value in the data set with guinea pig ileum [2] is recorded as “more active than papaverine”. Moreover, in the data set on guinea pig ileum [3], the “acetylcholine-induced contraction on guinea pig ileum” value is reported as “also effective on the acetylcholine-induced contraction”. In the data set with small intestine (100 mg/kg os), this compound had a Progress % of 73.63 ± 4.33%. In addition, in data set [5] (po, os), the LD50 at 168 h was determined as 350 mg/kg.
Regarding `CC[n+]1cccc(NCCC(c2ccccc2)c2ccccc2)c1` [3-(3',3'-diphenylpropyl-1'-amino)-1-ethylpyridinium iodide], the IC50 was 16 µM with rabbit ileum [1], 35 µM in the data set on rabbit ileum [4] and 12 µM in the data set on guinea pig ileum [3].
For `C[n+]1cccc(NCCC(c2ccccc2)c2ccccc2)c1` [3-(3',3'-diphenylpropyl-1'-amino)-1-methylpyridinium iodide], the figures for the IC50 in the data set with rabbit ileum [1], with rabbit ileum [4] and with guinea pig ileum [3] were 15 µM, 14 µM and 17 µM, respectively.
As for `CC[n+]1ccc(NCCC(c2ccccc2)c2ccccc2)cc1` [4-(3',3'-diphenylpropyl-1'-amino)-1-ethyl-pyridinium iodide], the IC50 in the data set on rabbit ileum [1] turned out to be 24 µM; in the data set with rabbit ileum [4], 22 µM; with guinea pig ileum [2], 8.9 µM; in the data set with guinea pig ileum [3], 10 µM.
`C[n+]1ccc(NCCC(c2ccccc2)c2ccccc2)cc1` [4-(3',3'-diphenylpropyl-1'-amino)-1-methyl-pyridinium iodide]: the IC50 was 18 µM in the data set with rabbit ileum [1], 14 µM in the data set with rabbit ileum [4] and 16 µM in the data set with guinea pig ileum [3].
With `CN1[C@@H]2CC[C@H]1C[C@@H](OC(=O)C(CO)c1ccccc1)C2` (stereo partly shown) [Atropine sulfate, reference compound], in [6] (60 mg/kg i.p.), the Tremors entry was “-”, the Miosis result is on record as “-” and the Ptyalism entry is recorded as “-”. The Chromodacryorrhea entry in data set [7] (1 mg/kg i.p.) is given as “-”.
With `c1ccc(C(CCNc2cccnc2)c2ccccc2)cc1` [N-(3'-pyridyl)-3,3-diphenylpropylamine hydrochloride], the IC50 in the data set with rabbit ileum [1] came out at 12 µM; in the data set on rabbit ileum [4], 28 µM; in the data set with guinea pig ileum [2], 6.7 µM; with guinea pig ileum [3], 10 µM. Also, in the data set with guinea pig ileum [2], the “BaCl2-induced contraction on guinea pig ileum” value was “more active than papaverine”. In the data set with guinea pig ileum [3], the “acetylcholine-induced contraction on guinea pig ileum” value is given as “also effective on the acetylcholine-induced contraction”. In addition, the Progress % in the data set with small intestine (20 mg/kg i.p.) is 75.06 ± 5.94%; in the data set with small intestine (100 mg/kg os), 79.10 ± 5.3%; in data set [8] it was 49.85 ± 3.34%. The Tremors result in data set [6] (50 mg/kg i.p.) and in data set [6] (100 mg/kg i.p.) was “-” throughout. In addition, the figures for the Miosis entry in [6] (50 mg/kg i.p.) and in data set [6] (100 mg/kg i.p.) were “+” and “-”, respectively. For the same compound, the Ptyalism entry is on record as “+” in [6] (50 mg/kg i.p.) and “-” in data set [6] (100 mg/kg i.p.). Further, the Chromodacryorrhea entry in data set [7] (50 mg/kg i.p.) is “+”. Also, the “effect on acetylcholine-induced chromodacryorrhea” value in data set [7] (50 mg/kg, result in words) is on record as “do not modify the acetylcholine-induced chromodacryorrhea”. In addition, the median lethal dose (LD50) at 168 h is 340 mg/kg in data set [5] (ip) and greater than 800 mg/kg in data set [5] (po, os). Moreover, in “Solubility”, the solubility turned out to be 1000 µg/mL.
With `COc1ccc(Cc2nccc3cc(OC)c(OC)cc23)cc1OC` [Papaverine hydrochloride, reference compound], the IC50 came to 39 µM in the data set on rabbit ileum [1], 56 µM in the data set with rabbit ileum [4], 9.2 µM with guinea pig ileum [2] and 8.5 µM with guinea pig ileum [3]. The compound also had a Progress % in the data set on small intestine (200 mg/kg os) of 70.2 ± 2.61%. Besides, the LD50 at 168 h in data set [5] (ip) worked out at 66 mg/kg; in [5] (po, os), 315 mg/kg.

The record behind these values is patent US4405627A, “Diphenylpropylamino-pyridine compounds useful as medicines” (Italiana Schoum S.p.A., priority 1979, dated 1983).
